The structures appear in SMILES notation.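 Dose response: 5 concentrations. Exposure: 48 h. Format: 96-well plates. Endpoint: linear interpolation; highest concentration if not reached. GI50 = concentration required for 50% inhibition of growth.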 Active and inactive are the calls of the source. Rule as the data show it: active = GI50 up to about 1.1 µM and inactive = higher.

Common to all, as to test: DTP human tumour cell line panel, 48 h
Experiment [1] has as its system HOP-62.
For experiment [2], the system named is PC-3.
The test system of experiment [3] is COLO 205.
The test system of experiment [4] is SK-MEL-5.
Experiment [5] concerns SNB-75.
Experiment [6] relates to MDA-MB-435.
The subject of experiment [7] is Malme-3M.
The subject of experiment [8] is SF-295.
The subject of experiment [9] is UACC-62.
The test system of experiment [10] is UO-31.
In experiment [11] the test system is K562.
Experiment [12] has as its system MDA-N.
Experiment [13] relates to OVCAR-4.
In experiment [14] the test system is MOLT-4.
The subject of experiment [15] is T47D.
Experiment [16] has as its system U-251.
The subject of experiment [17] is SF-539.
Experiment [18] deals with HCC 2998.
The test system of experiment [19] is SK-MEL-28.
The test system of experiment [20] is SR.

For orientation: GI50 means the concentration that inhibits growth by half. Turning to `O=c1ccc2nc3ccc(O)cc3oc-2c1`, the GI50 in experiment [1] was 17 µM (inactive); in [2], 4.69 µM (inactive); in [3], 6.25 µM (inactive); in experiment [4] it was 1.6 µM (inactive); in experiment [5] it was 6.78 µM (inactive); in [6] it was 1.83 µM (inactive). For the same compound, the GI50 in experiment [7] is 2.72 µM (inactive); in experiment [8] it was 8.49 µM (inactive); in experiment [9], 2.7 µM (inactive); in [10], 5.75 µM (inactive); in experiment [11] it was 6.1 µM (inactive); in [12], 1.91 µM (inactive). The GI50 in experiment [13] was > 68.1 µM (inactive); in [14], 34 µM (inactive); in [15], > 100 µM (inactive); in experiment [16] it was 26.8 µM (inactive); in [17], 4.7 µM (inactive); in [18] it was 25.6 µM (inactive).
For `O=C(O)CCSCc1ccc(I)cc1`, the GI50 was > 100 µM (inactive) in experiment [1]; > 100 µM (inactive) in experiment [2]; > 100 µM (inactive) in experiment [19]; > 100 µM (inactive) in experiment [3]; > 100 µM (inactive) in experiment [4]; 72.4 µM (inactive) in [5]. The GI50 in experiment [6], in experiment [7], in [8], in experiment [9], in experiment [10] and in experiment [11] was > 100 µM (inactive) each time. The GI50 in experiment [12], in experiment [13], in [14], in experiment [15], in experiment [16] and in [18] was > 100 µM (inactive) throughout.
For `CC(C)C(/C=C/c1ccc(Cl)cc1)=N\NC(=S)NN`, the GI50 is 31.6 µM (inactive) in [1]; 36.5 µM (inactive) in experiment [2]; 39.7 µM (inactive) in [19]; 24.2 µM (inactive) in experiment [3]; 33 µM (inactive) in experiment [4]; 22.9 µM (inactive) in experiment [5]. Besides, the GI50 in experiment [6] is 10.7 µM (inactive); in experiment [7], 25.2 µM (inactive); in experiment [8], 22.1 µM (inactive); in experiment [9], 4.51 µM (inactive); in experiment [10], 17.9 µM (inactive); in [11] it was 3.55 µM (inactive). The GI50 is 26.2 µM (inactive) in experiment [12]; 4.15 µM (inactive) in [14]; 6.59 µM (inactive) in experiment [15]; 6.61 µM (inactive) in [16]; 25.1 µM (inactive) in experiment [17]; 44.2 µM (inactive) in experiment [18].
For the compound `OC(c1ccc(-c2ccccc2)cc1)(c1ccc(-c2ccccc2)cc1)c1ccc(-c2ccccc2)cc1`, the GI50 in experiment [20], in experiment [1], in [2], in [19], in experiment [3] and in [4] was > 100 µM (inactive) throughout. Also, the GI50 in experiment [6], in experiment [8], in experiment [9], in [10], in [11] and in experiment [12] was > 100 µM (inactive) each time. Besides, the GI50 was > 100 µM (inactive) in experiment [13], 28.6 µM (inactive) in experiment [14], > 100 µM (inactive) in [15] and > 100 µM (inactive) in [16].
`COc1ccc(C2C3=C(Nc4ncnn42)c2ccccc2OC3c2ccccc2)cc1` (stereo not drawn): the GI50 was 8.47 µM (inactive) in [20]; > 100 µM (inactive) in [1]; 27.4 µM (inactive) in experiment [2]; 23.7 µM (inactive) in experiment [3]; 14.9 µM (inactive) in experiment [4]; 4.3 µM (inactive) in [6]. Besides, the GI50 in [8] is 27.8 µM (inactive); in experiment [9], 17.3 µM (inactive); in [10], 50.1 µM (inactive); in experiment [11], 11 µM (inactive); in experiment [12], 11 µM (inactive); in experiment [14], 6.27 µM (inactive). For the same compound, the GI50 was 13.7 µM (inactive) in experiment [15], 42.3 µM (inactive) in experiment [16] and 40 µM (inactive) in [17].
Take `CC(C)(NO)/C(=N\O)c1ccco1`: the GI50 is > 10 µM (inactive) in experiment [20]; > 100 µM (inactive) in experiment [1]; > 100 µM (inactive) in experiment [2]; > 100 µM (inactive) in experiment [19]; > 100 µM (inactive) in [3]; > 100 µM (inactive) in experiment [4]. In addition, the GI50 in experiment [6], in [7], in experiment [8], in [9], in experiment [10] and in experiment [12] was > 100 µM (inactive) in each case. The GI50 in experiment [13] was > 100 µM (inactive); in experiment [14] it was 20.1 µM (inactive); in experiment [15] it was > 100 µM (inactive); in [16], > 100 µM (inactive); in [17], > 100 µM (inactive); in experiment [18] it was > 100 µM (inactive).
For `C[C@H]1CC[C@@]2(NC1)O[C@H]1C[C@H]3[C@@H]4CC[C@H]5C[C@@H](O)CC[C@]5(C)[C@H]4CC[C@]3(C)[C@H]1[C@@H]2C`, the GI50 is 22.9 µM (inactive) in experiment [20]; 18.7 µM (inactive) in [1]; > 100 µM (inactive) in [2]; > 100 µM (inactive) in experiment [3]; 90.4 µM (inactive) in experiment [4]; 57.5 µM (inactive) in experiment [5]. Also, the GI50 in experiment [8] was 55.7 µM (inactive); in experiment [9], > 100 µM (inactive); in [10] it was > 100 µM (inactive); in experiment [11] it was > 100 µM (inactive); in [12], > 100 µM (inactive); in experiment [13], 35.6 µM (inactive). The GI50 in experiment [14], in [15], in experiment [17] and in experiment [18] was > 100 µM (inactive) each time.
For `CCCCCCCCCCCCC1NC(=N)NC2(CCCO2)C1C(=O)OC` (stereo not drawn), the GI50 was 2.33 µM (inactive) in experiment [20]; 7.18 µM (inactive) in experiment [1]; 1.67 µM (inactive) in [2]; 5.52 µM (inactive) in experiment [19]; 3.03 µM (inactive) in [3]; 5.47 µM (inactive) in [4]. Moreover, the GI50 in experiment [5] is 3.61 µM (inactive); in [6], 3.34 µM (inactive); in experiment [7], 2.23 µM (inactive); in [8], 9.73 µM (inactive); in experiment [9] it was 3.89 µM (inactive); in experiment [10] it was 15.3 µM (inactive). The GI50 in [11] was 1.91 µM (inactive); in experiment [13], 5.51 µM (inactive); in experiment [14], 1.75 µM (inactive); in [15], 6.4 µM (inactive); in [16] it was 1.64 µM (inactive); in experiment [17], 4.9 µM (inactive). Moreover, the GI50 in experiment [18] is 6.37 µM (inactive).
`COC1=C2CC(C)CC(OC)C(OC(=O)CN)[C@H](C)/C=C(\C)C(OC(N)=O)C(OC)/C=C\C=C(/C)C(=O)NC(=CC1=O)C2=O` (stereo partly drawn): the GI50 was 0.321 µM (active) in experiment [20]; 0.942 µM (active) in experiment [1]; 1.1 µM (active) in experiment [2]; 0.161 µM (active) in [19]; 0.0562 µM (active) in [3]; 0.855 µM (active) in experiment [4]. Further, the 50% growth inhibitory concentration (GI50) was 0.373 µM (active) in [6]; 0.351 µM (active) in experiment [7]; 3.84 µM (inactive) in experiment [8]; 0.468 µM (active) in experiment [9]; 0.716 µM (active) in experiment [10]; 0.443 µM (active) in [12]. Moreover, the GI50 is 0.708 µM (active) in experiment [13]; 0.344 µM (active) in [14]; 0.281 µM (active) in experiment [15]; 1.58 µM (inactive) in experiment [16]; 1.24 µM (inactive) in experiment [17]; 1.9 µM (inactive) in [18].
With `CNc1ccc(-c2nc3cc(C)ccc3o2)cc1`, the GI50 in experiment [1] was 19.9 µM (inactive); in experiment [2], > 100 µM (inactive); in [19], > 100 µM (inactive); in experiment [3] it was > 100 µM (inactive); in experiment [4], > 100 µM (inactive); in [5] it was 14.7 µM (inactive). Also, the GI50 in [6] was > 100 µM (inactive); in experiment [7] it was > 100 µM (inactive); in experiment [8], 28.9 µM (inactive); in experiment [9], 68.5 µM (inactive); in [10] it was 72.3 µM (inactive); in [11], > 100 µM (inactive). Further, the GI50 in experiment [12] was > 100 µM (inactive); in experiment [13], > 100 µM (inactive); in experiment [14] it was 34.9 µM (inactive); in experiment [15] it was 13.8 µM (inactive); in experiment [16], 58.6 µM (inactive); in experiment [17] it was 49.5 µM (inactive). For the same compound, the GI50 in experiment [18] is > 100 µM (inactive).
For the compound `NC(=O)CN1C=CCC(C(N)=O)=C1` [CARICOTAMIDE], the GI50 in experiment [1], in [2], in experiment [3], in experiment [4], in [5] and in experiment [6] was > 100 µM (inactive) each time. In addition, the GI50 in experiment [7], in experiment [8], in experiment [9], in [10], in [11] and in [12] was > 100 µM (inactive) in each case. Further, the GI50 in experiment [13], in [14], in experiment [15], in experiment [16], in [17] and in [18] was > 100 µM (inactive) in each case.

Source of the values: ChEMBL document CHEMBL1201862, “PubChem BioAssay data set” (2004).
